This is an account of results in patent US12023335B2, “Method for treating pancreatic cancer” (PTC THERAPEUTICS, INC., priority 2018, dated 2024).

One series addresses T1, P-glycoprotein (Homo sapiens, UniProt P08183).
T1 construct: host or cells: MDCKII-mdr1 (canine kidney MDCKII cells; MDCKII-wt as control)
Kind of series: P-glycoprotein substrate activity experiment (CC50 ratio MDCK-P-gp vs MDCK-WT). The settings on record: 72 hours, CellTiter-Glo (FIG. 4b). It counts as in vitro ADME. The procedure:
MDCKII-mdr1 and MDCKII-wt cells were purchased from the Netherlands Cancer Institute, NKI-AVL. The cells were cultivated in Dulbecco's modified essential medium (DMEM), supplemented with 10% FBS and 1% Penn-Strep, and used between passage 3-9. Cells were seeded at a density of 3×10^3 cells/well in 96-well tissue culture treated plates. After 4 hours to allow cells to attach, cells were treated with test compound in the presence or absence of the P-glycoprotein inhibitor Valspodar. The plates were incubated at 37° C., 5% CO2 for 72 hours and ATP was measured vialuminescence using CellTiter-Glo® reagent (Promega). (FIG. 4b)

The test system of the next series is advanced PDA. The settings on record: cited from earlier work.
The next series concerns PDA tumors in KPC mice. Kind of series: KPC intervention/survival study. To be noted: KPC mice (FIGS. 9a, 9b). It counts as in vivo. As for the experimental part: Tumor formation in KPC mice was monitored by weekly palpation until the detection of a mass. Upon positive palpation, the mass was monitored by twice weekly ultrasound until the tumor reached an enrollable size of 4-7 mm average diameter. Once enrollable, KPC mice were randomly enrolled into a treatment arm of the intervention study. Mice were treated with vehicle, Compound 1 (17 mg/kg, PO, b.i.w.), gemcitabine alone (100 mg/kg, IP, b.i.w.), or Compound 1+gemcitabine. Mice receiving Compound 1 also received gemcitabine vehicle (saline, IP, b.i.w.) at a volume (μL) of 50× body weight (g). Mice receiving gemcitabine also received Compound 1 vehicle (0.5% hydroxypropylmethylcellulose with 0.1% Tween80 (w/v), PO, b.i.w.) at a volume (μL) of 5.7× body weight (g). All drug and vehicle combinations were administered simultaneously.
Tumor ultrasonography and volume quantification were carried out as described in Sastra S A, Olive K P, Quantification of murine pancreatic tumors by high-resolution ultrasound, Methods Mol Biol 2013; 980:249-66. […]
To prepare samples for immunohistochemistry, tissues were first fixed overnight in 10% phosphate-buffered formalin and then stored in 70% ethanol for long-term storage. […] Next, antigen retrieval was carried out in an experimentally determined, antibody-specific antigen retrieval buffer (usually 10 mM citrate, pH 6.0 or 10 mM Tris, pH 10.0). […]

T1 sequence (P08183 whole entry): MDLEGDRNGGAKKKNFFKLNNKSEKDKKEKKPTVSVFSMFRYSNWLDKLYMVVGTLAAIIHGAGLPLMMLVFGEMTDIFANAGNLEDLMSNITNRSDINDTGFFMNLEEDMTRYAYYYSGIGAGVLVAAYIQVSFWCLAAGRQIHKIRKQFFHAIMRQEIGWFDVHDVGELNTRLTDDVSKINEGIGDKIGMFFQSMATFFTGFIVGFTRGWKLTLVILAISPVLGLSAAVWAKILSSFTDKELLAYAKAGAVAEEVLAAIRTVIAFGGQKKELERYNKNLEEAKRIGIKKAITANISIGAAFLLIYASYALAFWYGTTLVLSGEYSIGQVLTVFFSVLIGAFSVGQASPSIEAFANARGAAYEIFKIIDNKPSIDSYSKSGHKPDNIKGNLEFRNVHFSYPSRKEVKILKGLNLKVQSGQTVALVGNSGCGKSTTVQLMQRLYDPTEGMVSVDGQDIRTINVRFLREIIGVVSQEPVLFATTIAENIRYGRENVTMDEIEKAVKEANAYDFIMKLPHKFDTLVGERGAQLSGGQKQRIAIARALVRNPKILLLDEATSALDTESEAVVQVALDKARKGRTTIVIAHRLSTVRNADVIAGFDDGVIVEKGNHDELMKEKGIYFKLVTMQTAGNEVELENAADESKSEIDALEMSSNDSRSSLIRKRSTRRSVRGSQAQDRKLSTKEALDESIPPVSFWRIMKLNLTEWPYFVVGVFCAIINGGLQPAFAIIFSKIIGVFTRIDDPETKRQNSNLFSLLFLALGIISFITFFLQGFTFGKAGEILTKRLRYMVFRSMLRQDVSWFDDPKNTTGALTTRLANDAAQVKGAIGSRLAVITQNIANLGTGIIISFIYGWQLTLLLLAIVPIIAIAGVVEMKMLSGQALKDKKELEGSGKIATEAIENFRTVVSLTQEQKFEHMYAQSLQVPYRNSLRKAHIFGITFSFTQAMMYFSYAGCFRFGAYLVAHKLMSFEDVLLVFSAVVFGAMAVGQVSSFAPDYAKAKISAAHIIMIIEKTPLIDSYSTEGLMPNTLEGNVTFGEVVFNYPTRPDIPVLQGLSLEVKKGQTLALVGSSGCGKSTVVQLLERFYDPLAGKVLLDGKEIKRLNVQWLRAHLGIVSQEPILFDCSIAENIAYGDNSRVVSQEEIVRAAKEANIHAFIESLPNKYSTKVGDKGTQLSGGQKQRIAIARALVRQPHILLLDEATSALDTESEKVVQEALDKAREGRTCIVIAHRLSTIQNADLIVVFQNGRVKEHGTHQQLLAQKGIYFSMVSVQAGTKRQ

For `Cc1nc2cc(F)c(F)cc2n1-c1cncc(Nc2ccc(C(F)(F)F)cc2)n1` [Compound 2, 6-(5,6-difluoro-2-methyl-1H-benzo[d]imidazol-1-yl)-N-(4-(trifluoromethyl)phenyl)pyrazin-2-amine, reference compound], the “PGP substrate activity (ratio of CC50 values MDCK-P-gp vs MDCK-WT)” value at P-glycoprotein is “do not function as a PGP substrate”.

Take `C#Cc1cccc(Nc2ncnc3cc(OCCOC)c(OCCOC)cc23)c1` [Tarceva, erlotinib]: in the series with advanced PDA (when combined with gemcitabine), the “additional survival benefit, average” value is on record as 10 days.

In the case of `CN(C)CCCN1c2ccccc2Sc2ccc(Cl)cc21` [chlorpromazine, reference compound], the “PGP substrate activity (ratio of CC50 values MDCK-P-gp vs MDCK-WT)” value at P-glycoprotein was “do not function as a PGP substrate”.

Take `Nc1ccn([C@@H]2O[C@H](CO)[C@@H](O)C2(F)F)c(=O)n1` [gemcitabine, reference compound]: the extension of survival entry in the series with advanced PDA (national standard-of-care therapy) is on record as “modestly extends survival by a few weeks”. Moreover, the “apoptotic cell population in stained tumor sections” value with PDA tumors in KPC mice is listed as “induced apoptotic cell population”.
